The target in the first test is T1, USP8 Rhod domain (Homo sapiens, UniProt P40818).
T1 construct: USP8 Rhod (174–317) (UniProt: P40818); GST (cleaved yes); made in house; host or cells: Escherichia coli BL21-Gold (DE3)
T1 sequence (P40818 174-317): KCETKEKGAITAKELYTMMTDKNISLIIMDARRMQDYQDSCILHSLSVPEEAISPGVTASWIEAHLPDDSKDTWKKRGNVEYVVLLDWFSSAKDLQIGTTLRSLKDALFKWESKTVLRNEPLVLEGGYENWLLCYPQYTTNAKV
Kind of test: Peptide-phage display-based deep mutational scanning (DMS), USP8 Rhod domain. As to conditions: ProP-PD pairs, bait USP8_Rhodanese__P40818_174_317; wild-type/mutant pair, wild type KIAA1614 569-584 GMERVLGGLSSPLRLL (wt_00013). It counts as binding. The method, then:
Four rounds of phage selections were carried out using the second generation human disorderome library or the constructed deep mutational scanning library. At least three individual replicates were used for each bait protein. 10 µg of GST-tagged proteins or GST control (diluted in PBS from the stock of proteins kept in the purification elution buffer) were immobilized in 100 µL PBS on a 96-well MaxiSorp (Nunc) plate overnight at 4 °C. The plates were incubated with blocking buffer (with 0.5% BSA in PBS) for 1 h at 4 °C followed by washing with 0.05% Tween 20 in PBS four times. The naïve phage library (10^11 CFU) was diluted in 1/5th volume PEG/NaCl (20% PEG-8000, 0.4 M NaCl) and 1X PBS, incubated on ice for 10 min and centrifuged at 10,000 [drawing 3] g for 10 min. The pellet was resuspended in the volume of PBS (100 µL/ well). The GST-coated control plate was incubated with 100 µL library per well in PBS for 1 h at 4 °C to remove non-specific binders. The supernatant was transferred to the target wells and incubated for 2 h at 4 °C. The wells were washed five times with 0.05% Tween 20 in PBS and the bound phages were eluted with 100 µL per well log-phase E. coli OmniMAX by incubating at 37° C while shaking. After 30 min, M13KO7 helper phages were added and incubated for an additional 45 min. The bacterial cultures were transferred to 1 mL 2YT supplemented with 100 µg/mL carbenicillin, 30 µg/mL kanamycin and 0.3 mM IPTG and grew overnight at 37 °C while shaking. The following day the cultures were centrifuged for 10 min at 2,000 [drawing 4] g, 4 °C. 1/10th volume of 10 [drawing 5] PBS was added to adjust the pH and heated at 65 °C for 10 min. The phage pools from each round were used as in-phages for the next round of selections.
The samples were prepared for NGS as previously described. […] The PCR products were normalized with 25 µL Mag-bind Total Pure NGS beads (Omega Biotek) and 10 µL of each eluted sample (Qiagen Elution Buffer) was pooled and cleaned-up with a PCR purification kit (Qiagen). The PCR product was confirmed by 2% agarose electrophoresis and the band was extracted with QIAquick Gel extraction Kit (Qiagen) and eluted with 30 µL TE buffer. The dsDNA was quantified using QuantiT PicoGreen dsDNA Assay Kit (Thermo Fisher) and sent for NGS (Illumina MiSeq v3, 1 × 150 bp read setup, 20% PhiX, NGI SciLifeLab facility, Sweden). The NGS data were demultiplexed, adapter regions were trimmed and sequences with an average quality of at least 20 were translated to peptide sequences. The NGS data were analysed using custom Python scripts. The total read NGS counts for each selection experiment of each peptide sequence were compiled and annotated in PepTools (https://slim.icr.ac.uk/tools/peptools/). Since ProP-PD is in essence a competition assay, the possibility of the input phage library influencing the selection outcome was explored. […] Pearson correlation coefficient and p-value were calculated using Python’s SciPy library.
Sequence DMERVLGGLSSPLRLL had a hit_pair_ratio of 1.56.

EMERVLGGLSSPLRLL came in with a hit_pair_ratio of 2.87.

In turn, FMERVLGGLSSPLRLL returned a hit_pair_ratio of 321.97.

Regarding GAERVLGGLSSPLRLL, the hit_pair_ratio is on record as -2.65.

For GDERVLGGLSSPLRLL, the hit_pair_ratio is given as -4.95.

Consider GEERVLGGLSSPLRLL, for which the hit_pair_ratio is given as -32.83.

GFERVLGGLSSPLRLL registered a hit_pair_ratio of 1.56.

Consider GGERVLGGLSSPLRLL, for which the hit_pair_ratio is -22.40.

GHERVLGGLSSPLRLL: the hit_pair_ratio is recorded as -7.73.

For GIERVLGGLSSPLRLL, the hit_pair_ratio is given as -4.51.

With GKERVLGGLSSPLRLL, the hit_pair_ratio is listed as -1.45.

The test is the same for the next values; noted with them: bait USP8_Rhodanese__P40818_174_317; wild-type/mutant pair ratio of averaged fractions; negative values where mutant fraction is higher.
AMERVLGGLSSPLRLL: the hit_pair_ratio is on record as -9.71.

For GLALWEAKMAQLAERA, the hit_pair_ratio is reported as -3.11.

In the case of GLALWEAKMDQLAERA, the hit_pair_ratio turned out to be 25.01.

For the sequence GLALWEAKMEQLAERA, the hit_pair_ratio is listed as -4.35.

As to GLALWEAKMFQLAERA, the hit_pair_ratio was found to be 59.51.

For the sequence GLALWEAKMGQLAERA, the hit_pair_ratio is given as -1.24.

For the sequence GLALWEAKMHQLAERA, the hit_pair_ratio is reported as -2.45.

For the sequence GLALWEAKMIQLAERA, the hit_pair_ratio is on record as 19.96.

For GLALWEAKMKALAERA, the hit_pair_ratio is reported as 133.35.

GLALWEAKMKDLAERA: the hit_pair_ratio is given as -1.51.

Regarding GLALWEAKMKFLAERA, the hit_pair_ratio is listed as 1107.01.

Consider GLALWEAKMKGLAERA, for which the hit_pair_ratio is 5.73.

For GLALWEAKMKHLAERA, the hit_pair_ratio came to 17.96.

As for GLALWEAKMKILAERA, the hit_pair_ratio came out at 553.50.

For GLALWEAKMKKLAERA, the hit_pair_ratio is 417.62.

Take GLALWEAKMKLLAERA: the hit_pair_ratio is recorded as -2.26.

On to GLALWEAKMKMLAERA, for which the hit_pair_ratio was 23.91.

Regarding GLALWEAKMKNLAERA, the hit_pair_ratio was 1.69.

As to GLALWEAKMKQAAERA, the hit_pair_ratio is 417.62.

With GLALWEAKMKQFAERA, the hit_pair_ratio came to 553.50.

On to GLALWEAKMKQIAERA, for which the hit_pair_ratio is 1107.01.

On to GLALWEAKMKQKAERA, for which the hit_pair_ratio was 1107.01.

For the sequence GLALWEAKMKQLAARA, the hit_pair_ratio was determined as 114.71.

Turning to GLALWEAKMKQLADRA, the hit_pair_ratio was 175.67.

For GLALWEAKMKQLAEAA, the hit_pair_ratio worked out at 1107.01.

For GLALWEAKMKQLAEDA, the hit_pair_ratio turned out to be 66.48.

Consider GLALWEAKMKQLAEEA, for which the hit_pair_ratio worked out at 15.47.

Consider GLALWEAKMKQLAEFA, for which the hit_pair_ratio is 208.81.

For GLALWEAKMKQLAEGA, the hit_pair_ratio is reported as 5.87.

Turning to GLALWEAKMKQLAEHA, the hit_pair_ratio amounted to 25.68.

For the sequence GLALWEAKMKQLAEKA, the hit_pair_ratio came to 12.41.

With GLALWEAKMKQLAELA, the hit_pair_ratio is recorded as 11.23.

Take GLALWEAKMKQLAEMA: the hit_pair_ratio was determined as 12.23.

Turning to GLALWEAKMKQLAENA, the hit_pair_ratio was found to be 55.62.

For the sequence GLALWEAKMKQLAEPA, the hit_pair_ratio is listed as -18.07.

GLALWEAKMKQLAEQA: the hit_pair_ratio was -4.51.

Consider GLALWEAKMKQLAERD, for which the hit_pair_ratio is -5.62.

Consider GLALWEAKMKQLAERE, for which the hit_pair_ratio turned out to be 4.16.

As for GLALWEAKMKQLAERF, the hit_pair_ratio is listed as 1107.01.

Regarding GLALWEAKMKQLAERG, the hit_pair_ratio turned out to be 73.80.

GLALWEAKMKQLAERH: the hit_pair_ratio is 208.81.

Consider GLALWEAKMKQLAERI, for which the hit_pair_ratio is -1.09.

For the sequence GLALWEAKMKQLAERL, the hit_pair_ratio is 72.57.

With GLALWEAKMKQLAERM, the hit_pair_ratio is 33.55.

For GLALWEAKMKQLAERN, the hit_pair_ratio was -1.05.

Turning to GLALWEAKMKQLAERP, the hit_pair_ratio is -3.73.

For the sequence GLALWEAKMKQLAERQ, the hit_pair_ratio worked out at 3.47.

For the sequence GLALWEAKMKQLAERR, the hit_pair_ratio is listed as 553.50.

Take GLALWEAKMKQLAERS: the hit_pair_ratio was 1.62.

Take GLALWEAKMKQLAERT: the hit_pair_ratio was 1.21.

As for GLALWEAKMKQLAERV, the hit_pair_ratio is listed as -1.88.

GLALWEAKMKQLAERY: the hit_pair_ratio was determined as 303.23.

For the sequence GLALWEAKMKQLAESA, the hit_pair_ratio was -3.11.

For GLALWEAKMKQLAETA, the hit_pair_ratio is reported as -1.95.

As for GLALWEAKMKQLAEVA, the hit_pair_ratio is reported as 195.90.

Consider GLALWEAKMKQLAEWA, for which the hit_pair_ratio amounted to 38.36.

In the case of GLALWEAKMKQLAEYA, the hit_pair_ratio is -10.12.

With GLALWEAKMKQLAFRA, the hit_pair_ratio was found to be 24.07.

In the case of GLALWEAKMKQLAGRA, the hit_pair_ratio is 14.06.

As for GLALWEAKMKQLAIRA, the hit_pair_ratio is recorded as 1107.01.

As to GLALWEAKMKQLALRA, the hit_pair_ratio was 13.05.

Take GLALWEAKMKQLAMRA: the hit_pair_ratio worked out at 7.80.

Staying with this test, now noted: wild type/mutant pair; bait USP8_Rhodanese__P40818_174_317; vs hit_library_peptide_wt GLALWEAKMKQLAERA; negative where mutant fraction exceeds wild type; ProP-PD pairs (sheet S7.B).
With ELALWEAKMKQLAERA, the hit_pair_ratio is given as 75.56.

For GAALWEAKMKQLAERA, the hit_pair_ratio is reported as 1107.01.

In the case of GFALWEAKMKQLAERA, the hit_pair_ratio came to 114.71.

As for GHALWEAKMKQLAERA, the hit_pair_ratio was 175.67.

Take GIALWEAKMKQLAERA: the hit_pair_ratio is 1.27.

In the case of GKALWEAKMKQLAERA, the hit_pair_ratio is 369.00.

In turn, GLAAWEAKMKQLAERA returned a hit_pair_ratio of 52.20.

For the sequence GLADWEAKMKQLAERA, the hit_pair_ratio is recorded as 1107.01.

Sequence GLAEWEAKMKQLAERA displayed a hit_pair_ratio of 52.71.

In turn, GLAFWEAKMKQLAERA registered a hit_pair_ratio of 21.29.

GLAGWEAKMKQLAERA gave a hit_pair_ratio of 208.81.

GLAHWEAKMKQLAERA: the hit_pair_ratio is given as 369.00.

For the sequence GLAIWEAKMKQLAERA, the hit_pair_ratio is on record as -44.11.

Regarding GLAKWEAKMKQLAERA, the hit_pair_ratio is on record as 1107.01.

GLALFEAKMKQLAERA displayed a hit_pair_ratio of 1107.01.

As for GLALGEAKMKQLAERA, the hit_pair_ratio is listed as 65.12.

GLALHEAKMKQLAERA displayed a hit_pair_ratio of 1107.01.

Regarding GLALKEAKMKQLAERA, the hit_pair_ratio was found to be 553.50.

The sequence GLALLEAKMKQLAERA registered a hit_pair_ratio of 417.62.

In the case of GLALMEAKMKQLAERA, the hit_pair_ratio is recorded as 16.52.

For the sequence GLALPEAKMKQLAERA, the hit_pair_ratio worked out at 110.70.

For GLALREAKMKQLAERA, the hit_pair_ratio was 303.23.

For GLALSEAKMKQLAERA, the hit_pair_ratio is given as 61.66.

The sequence GLALTEAKMKQLAERA returned a hit_pair_ratio of 1107.01.

In turn, GLALVEAKMKQLAERA had a hit_pair_ratio of 1107.01.

Take GLALWAAKMKQLAERA: the hit_pair_ratio turned out to be 553.50.

Regarding GLALWDAKMKQLAERA, the hit_pair_ratio turned out to be 51.13.

Regarding GLALWEAEMKQLAERA, the hit_pair_ratio is on record as 1107.01.

GLALWEAKAKQLAERA displayed a hit_pair_ratio of 7.49.

GLALWEAKFKQLAERA came in with a hit_pair_ratio of 369.00.

In the case of GLALWEAKHKQLAERA, the hit_pair_ratio was 127.97.

As to GLALWEAKIKQLAERA, the hit_pair_ratio is recorded as 101.08.

Take GLALWEAKLKQLAERA: the hit_pair_ratio was 1107.01.

The record behind these values is paper PMC12057046, “Elucidation of short linear motif-based interactions of the MIT and rhodanese domains of the ubiquitin-specific protease 8” (Biology Direct, 2025).
